According to patent publication US4011322A, “Benzimidazole derivatives and process for the production thereof” (Schering Aktiengesellschaft, priority 1974, dated 1977):

Tested on: stripped skin of volunteers (vasoconstriction / hyperemia)
Test: Vasoconstriction test on stripped skin of volunteers (topical ointment)
Format: in vivo, human (volunteers)
Procedure: The anti-inflammatory effectiveness of the novel benzimidazole derivatives can be determined in the conventional vasoconstriction test, as follows:
On the backs of volunteers for the experiment, the stratum corneum was removed by the application and tearing off of an adhesive strip, applied 20 times at the same spot, thus producing a pronounced hyperemia. Within the stripped area, respectively 50 mg. of ointment was applied to marked areas having a size of 4 cm^2, this ointment containing respectively 0.1, 0.01 or 0.001%, respectively, of the compound to be tested or of the reference substance in a water-oil base. […]
To determine the vasoconstriction, which is a representative syndrome of topical anti-inflammatory activity, the color value of the untreated skin and the treated stripped skin is measured and compared with the color value of the normal skin, with the color value of the normal skin being assigned the value 100 and the color value of the untreated stripped skin being assigned the value 0. Minor, medium, and high-grade vasoconstriction are evaluated with values between 0 and 100.
The results of such tests employing compounds of this invention (Compounds III and IV) and the prior art compounds Clemizole (I) and Flucortolone (II) are shown in Table I below.

[1] = 0.01% in ointment, observation time 1 hour
[2] = 0.01% in ointment, observation time 4 hours
[3] = 0.01% in ointment, observation time 8 hours
[4] = 0.1% in ointment, observation time 1 hour
[5] = 0.1% in ointment, observation time 4 hours
[6] = 0.1% in ointment, observation time 8 hours
[7] = 0.001% in ointment, observation time 1 hour
[8] = 0.001% in ointment, observation time 4 hours
[9] = 0.001% in ointment, observation time 8 hours

For `Clc1ccc(Cn2c(CN3CCCC3)nc3ccccc32)cc1` [I, 1-4'Chlorobenzyl-2-pyrrolidinomethyl-benzimidazole], the “vasoconstriction (color value; normal skin = 100, untreated stripped skin = 0)” value (from here on “vasoconstriction”) [1] was 18, the “vasoconstriction” value [2] was 31 and the “vasoconstriction” value [3] was 33. The “vasoconstriction” value [4] was 18, the “vasoconstriction” value [5] was 35 and the “vasoconstriction” value [6] was 45.
With `C[C@@H]1C[C@H]2[C@@H]3C[C@H](F)C4=CC(=O)C=C[C@]4(C)[C@H]3[C@@H](O)C[C@]2(C)[C@H]1C(=O)CO` [II, 6 α-Fluoro-11β,21-dihydroxy-16α-methyl-1,4-pregnadiene-3,20-dione] the “vasoconstriction” value [7] was 20, the “vasoconstriction” value [8] was 50 and the “vasoconstriction” value [9] was 60. The “vasoconstriction” value [1] was 15, the “vasoconstriction” value [2] was 65 and the “vasoconstriction” value [3] was 85. For the same molecule, the “vasoconstriction” value [4] was 35, the “vasoconstriction” value [5] was 75 and the “vasoconstriction” value [6] was 85.
For `CCN1CCN(Cc2nc3ccccc3n2Cc2ccccc2O)CC1` [III, 2-(4-Ethyl-1-piperazinyl)-methyl-1-(2-hydroxybenzyl)-benzimidazole], the “vasoconstriction” value [7] was 15, the “vasoconstriction” value [8] was 15 and the “vasoconstriction” value [9] was 20. For the same molecule, the “vasoconstriction” value [1] was 35, the “vasoconstriction” value [2] was 55 and the “vasoconstriction” value [3] was 55. For the same molecule, the “vasoconstriction” value [4] was 45, the “vasoconstriction” value [5] was 80 and the “vasoconstriction” value [6] was 85.
`CCN1CCN(Cc2nc3ccccc3n2Cc2ccc(Cl)cc2)CC1` [IV, 2-(4-Ethyl-1-piperazinyl)-methyl-1-(4-chlorobenzyl)-benzimidazole] was tested, and the “vasoconstriction” value [7] was 25, the “vasoconstriction” value [8] was 65 and the “vasoconstriction” value [9] was 95. The “vasoconstriction” value [1] was 30, the “vasoconstriction” value [2] was 85 and the “vasoconstriction” value [3] was 100.
